This note sets out measurements from ChEMBL document CHEMBL1275330, “Rational design, synthesis, and evaluation of new selective inhibitors of microbial class II (zinc dependent) fructose bis-phosphate aldolases” (J Med Chem, 2010).

What all share (type): tissue-based
Conditions in all cases: Muscle tissue

Assay [1] in a line: Selectivity ratio of Km/ki for rabbit muscle […] Fba to Km/ki for Mycobacterium tuberculosis zinc dependent class 2 Fba.
A short description of assay [2]: Selectivity ratio of Km/ki for rabbit muscle […] Fba to Km/ki for Helicobacter pylori recombinant zinc dependent class 2 Fba.
The nature of assay [3]: Selectivity ratio of Km/ki for rabbit muscle […] Fba to Km/ki for Candida albicans zinc dependent class 2 Fba.

In the case of `O=C(COP(=O)(O)O)N(O)CCCO`, the Ratio in assay [1] is 20000; in assay [2], 600; in assay [3] it was 34000.
With `CCCCCCCCCCCC(=O)OCCCCN(O)C(=O)COP(=O)(O)O`, the results for the Ratio in assay [1], in assay [2] and in assay [3] were 305, 19 and 475, respectively.
Turning to `O=C(COP(=O)(O)O)N(O)CCCOP(=O)(O)O`, the Ratio in assay [1] turned out to be 28000; in assay [2], 23000; in assay [3], 7500.
